# Columns and labels:
# [1] = biological target: T1, Aurora kinase A (Homo sapiens) (UniProt O14965); assay: Selectivity interaction (KinomeScan (DiscoverX)) EUB0001049a STK6; conditions: at 1 µM
# T1 sequence (whole entry): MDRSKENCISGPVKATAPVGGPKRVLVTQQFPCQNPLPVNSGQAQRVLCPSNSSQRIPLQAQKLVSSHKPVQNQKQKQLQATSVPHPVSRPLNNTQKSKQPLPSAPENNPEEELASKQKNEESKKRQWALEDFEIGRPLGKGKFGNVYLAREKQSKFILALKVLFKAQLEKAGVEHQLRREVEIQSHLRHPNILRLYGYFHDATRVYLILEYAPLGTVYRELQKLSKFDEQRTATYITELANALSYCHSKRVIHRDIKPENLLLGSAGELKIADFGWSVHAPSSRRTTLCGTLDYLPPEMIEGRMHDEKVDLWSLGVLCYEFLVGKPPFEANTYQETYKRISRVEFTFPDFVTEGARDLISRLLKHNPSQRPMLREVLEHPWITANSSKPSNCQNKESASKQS
# [2] = biological target: Serine/threonine-protein kinase PLK2 (Homo sapiens, UniProt Q9NYY3); assay: Selectivity interaction (KinomeScan (DiscoverX)) EUB0001049a PLK2; conditions: at 1 µM
# Sequence of Serine/threonine-protein kinase PLK2 (Q9NYY3 whole entry, looked up): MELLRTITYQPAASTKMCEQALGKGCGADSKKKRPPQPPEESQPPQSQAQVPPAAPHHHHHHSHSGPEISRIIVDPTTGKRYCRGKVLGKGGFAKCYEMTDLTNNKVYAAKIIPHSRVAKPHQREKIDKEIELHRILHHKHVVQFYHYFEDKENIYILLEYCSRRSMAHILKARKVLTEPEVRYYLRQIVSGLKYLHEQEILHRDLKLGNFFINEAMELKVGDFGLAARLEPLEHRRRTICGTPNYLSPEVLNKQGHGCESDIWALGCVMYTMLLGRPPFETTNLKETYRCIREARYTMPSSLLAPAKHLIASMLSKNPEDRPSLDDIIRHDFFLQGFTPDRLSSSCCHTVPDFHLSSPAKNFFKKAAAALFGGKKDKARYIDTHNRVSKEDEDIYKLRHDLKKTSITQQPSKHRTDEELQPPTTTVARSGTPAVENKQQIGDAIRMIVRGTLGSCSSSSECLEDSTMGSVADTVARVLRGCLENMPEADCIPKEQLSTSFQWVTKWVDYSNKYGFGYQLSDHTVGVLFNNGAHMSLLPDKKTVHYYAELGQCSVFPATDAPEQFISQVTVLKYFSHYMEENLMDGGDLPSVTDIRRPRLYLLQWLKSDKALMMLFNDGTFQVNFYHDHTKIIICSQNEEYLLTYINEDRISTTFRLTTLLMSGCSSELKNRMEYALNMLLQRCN
# [3] = Selectivity interaction (Ambit KINOMEscan and KiNATiv profiling in Jurkat cells) EUB0000090b CDK2H; conditions: Selectivity number of off-targets 9; Selectivity number of targets 456; Source Knowledge https://www.nature.com/articles/nchembio.2166; at 1 µM
# [4] = biological target: RAC-gamma serine/threonine-protein kinase (Homo sapiens, UniProt Q9Y243); assay: Selectivity interaction (Kinase panel (Invitrogen)) EUB0000639a AKT3; conditions: at 200 nM
# Sequence of RAC-gamma serine/threonine-protein kinase (Q9Y243 whole entry): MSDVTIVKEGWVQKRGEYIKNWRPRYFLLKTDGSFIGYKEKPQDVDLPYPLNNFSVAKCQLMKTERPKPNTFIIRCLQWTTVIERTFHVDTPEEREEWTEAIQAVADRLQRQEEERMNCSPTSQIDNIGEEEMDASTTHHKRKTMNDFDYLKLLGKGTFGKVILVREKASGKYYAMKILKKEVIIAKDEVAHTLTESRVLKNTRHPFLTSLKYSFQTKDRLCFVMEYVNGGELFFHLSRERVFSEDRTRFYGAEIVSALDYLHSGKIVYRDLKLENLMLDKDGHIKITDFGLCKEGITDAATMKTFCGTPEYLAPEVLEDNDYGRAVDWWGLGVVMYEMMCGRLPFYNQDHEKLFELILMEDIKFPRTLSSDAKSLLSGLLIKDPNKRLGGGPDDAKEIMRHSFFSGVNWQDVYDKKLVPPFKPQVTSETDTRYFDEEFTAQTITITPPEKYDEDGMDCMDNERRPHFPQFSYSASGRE
# [5] = biological target: Ribosomal protein S6 kinase alpha-1 (Homo sapiens, UniProt Q15418); assay: Selectivity interaction (ActivX KiNativ screen (kinase selectivity in THP-1 cell lysates)) EUB0000639a RPS6KA1; format: subcellular; conditions: lysate, at 0.04 µM
# Sequence of Ribosomal protein S6 kinase alpha-1 (Q15418 whole entry): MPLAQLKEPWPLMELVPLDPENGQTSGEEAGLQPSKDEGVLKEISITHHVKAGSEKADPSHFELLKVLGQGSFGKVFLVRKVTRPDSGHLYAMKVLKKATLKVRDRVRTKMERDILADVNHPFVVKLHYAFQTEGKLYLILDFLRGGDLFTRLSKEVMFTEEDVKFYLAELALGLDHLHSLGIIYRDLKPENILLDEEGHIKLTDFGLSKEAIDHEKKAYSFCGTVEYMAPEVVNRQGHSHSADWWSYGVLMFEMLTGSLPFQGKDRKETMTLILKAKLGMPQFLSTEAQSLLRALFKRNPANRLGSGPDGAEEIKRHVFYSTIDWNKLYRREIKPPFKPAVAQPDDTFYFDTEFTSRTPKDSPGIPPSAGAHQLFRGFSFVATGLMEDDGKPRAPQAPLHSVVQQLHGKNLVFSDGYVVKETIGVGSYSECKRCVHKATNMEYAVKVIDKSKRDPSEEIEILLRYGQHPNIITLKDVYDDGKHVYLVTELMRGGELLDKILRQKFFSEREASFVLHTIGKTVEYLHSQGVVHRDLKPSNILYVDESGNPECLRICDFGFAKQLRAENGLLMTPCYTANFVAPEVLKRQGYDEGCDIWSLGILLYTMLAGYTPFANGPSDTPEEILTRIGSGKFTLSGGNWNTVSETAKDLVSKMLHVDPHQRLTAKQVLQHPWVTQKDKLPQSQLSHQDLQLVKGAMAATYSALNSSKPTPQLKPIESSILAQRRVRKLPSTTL
# [6] = biological target: Ribosomal protein S6 kinase alpha-2 (Homo sapiens) (UniProt Q15349); assay: Selectivity interaction (Kinase panel (Invitrogen)) EUB0000639a RPS6KA2; conditions: at 200 nM
# Sequence of Ribosomal protein S6 kinase alpha-2 (Homo sapiens) (Q15349 whole entry): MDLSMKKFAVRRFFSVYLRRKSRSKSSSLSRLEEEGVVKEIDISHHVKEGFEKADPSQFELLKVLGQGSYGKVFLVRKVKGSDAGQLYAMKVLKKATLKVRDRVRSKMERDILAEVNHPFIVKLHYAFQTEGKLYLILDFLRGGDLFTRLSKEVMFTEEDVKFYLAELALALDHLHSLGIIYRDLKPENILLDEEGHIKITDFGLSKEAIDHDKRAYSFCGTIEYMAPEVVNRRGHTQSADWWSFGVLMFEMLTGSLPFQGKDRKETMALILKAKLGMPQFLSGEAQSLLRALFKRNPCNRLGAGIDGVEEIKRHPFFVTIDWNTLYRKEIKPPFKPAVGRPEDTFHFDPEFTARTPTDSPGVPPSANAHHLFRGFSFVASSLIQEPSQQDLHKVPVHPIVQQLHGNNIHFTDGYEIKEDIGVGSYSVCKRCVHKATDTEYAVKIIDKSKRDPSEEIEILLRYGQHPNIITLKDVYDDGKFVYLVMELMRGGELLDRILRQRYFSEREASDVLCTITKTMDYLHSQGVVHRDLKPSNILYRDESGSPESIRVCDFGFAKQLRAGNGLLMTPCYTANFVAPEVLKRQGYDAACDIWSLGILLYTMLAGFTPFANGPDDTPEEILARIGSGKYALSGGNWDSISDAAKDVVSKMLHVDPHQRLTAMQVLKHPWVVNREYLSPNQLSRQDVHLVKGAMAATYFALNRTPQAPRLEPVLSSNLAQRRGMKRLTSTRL
# Aurora kinase B = Aurora kinase B (Homo sapiens, UniProt Q96GD4); assay: Selectivity interaction (Kinase panel (literature)) EUB0001199aCl AURKB; conditions: at 1 µM
# Sequence of Aurora kinase B (Q96GD4 whole entry): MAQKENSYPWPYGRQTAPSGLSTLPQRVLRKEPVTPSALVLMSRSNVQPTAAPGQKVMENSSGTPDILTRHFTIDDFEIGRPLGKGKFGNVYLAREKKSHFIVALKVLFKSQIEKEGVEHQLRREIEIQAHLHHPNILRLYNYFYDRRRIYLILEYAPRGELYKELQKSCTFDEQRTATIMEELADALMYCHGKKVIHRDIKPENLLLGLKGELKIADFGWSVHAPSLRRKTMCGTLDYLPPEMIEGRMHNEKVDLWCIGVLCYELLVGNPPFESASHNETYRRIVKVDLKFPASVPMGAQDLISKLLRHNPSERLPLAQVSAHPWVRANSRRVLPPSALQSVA
# [7] = biological target: Calcium/calmodulin-dependent protein kinase type 1G (Homo sapiens) (UniProt Q96NX5); assay: Selectivity interaction (Kinase panel (Z-LYTE Assay)) EUB0001632a CAMK1G; conditions: at 10 µM
# Sequence of Calcium/calmodulin-dependent protein kinase type 1G (Homo sapiens) (Q96NX5 whole entry): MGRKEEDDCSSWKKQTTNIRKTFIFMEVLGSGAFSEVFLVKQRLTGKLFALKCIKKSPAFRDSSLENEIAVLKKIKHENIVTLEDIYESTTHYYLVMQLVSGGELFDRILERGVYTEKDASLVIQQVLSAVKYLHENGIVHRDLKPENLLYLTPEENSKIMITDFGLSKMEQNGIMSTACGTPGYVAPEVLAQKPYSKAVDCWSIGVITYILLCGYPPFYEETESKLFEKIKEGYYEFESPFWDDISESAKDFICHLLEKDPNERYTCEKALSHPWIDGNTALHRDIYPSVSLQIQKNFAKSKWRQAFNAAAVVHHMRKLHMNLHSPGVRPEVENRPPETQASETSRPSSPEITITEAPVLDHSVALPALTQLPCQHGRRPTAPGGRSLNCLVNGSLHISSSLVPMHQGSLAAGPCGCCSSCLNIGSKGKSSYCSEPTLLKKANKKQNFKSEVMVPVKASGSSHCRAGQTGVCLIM
# [8] = biological target: T2, Receptor-interacting serine/threonine-protein kinase 4 (Homo sapiens) (UniProt P57078); assay: Selectivity interaction (KinomeScan (DiscoverX)) EUB0000695a RIPK4; conditions: at 100 nM
# T2 sequence (whole entry): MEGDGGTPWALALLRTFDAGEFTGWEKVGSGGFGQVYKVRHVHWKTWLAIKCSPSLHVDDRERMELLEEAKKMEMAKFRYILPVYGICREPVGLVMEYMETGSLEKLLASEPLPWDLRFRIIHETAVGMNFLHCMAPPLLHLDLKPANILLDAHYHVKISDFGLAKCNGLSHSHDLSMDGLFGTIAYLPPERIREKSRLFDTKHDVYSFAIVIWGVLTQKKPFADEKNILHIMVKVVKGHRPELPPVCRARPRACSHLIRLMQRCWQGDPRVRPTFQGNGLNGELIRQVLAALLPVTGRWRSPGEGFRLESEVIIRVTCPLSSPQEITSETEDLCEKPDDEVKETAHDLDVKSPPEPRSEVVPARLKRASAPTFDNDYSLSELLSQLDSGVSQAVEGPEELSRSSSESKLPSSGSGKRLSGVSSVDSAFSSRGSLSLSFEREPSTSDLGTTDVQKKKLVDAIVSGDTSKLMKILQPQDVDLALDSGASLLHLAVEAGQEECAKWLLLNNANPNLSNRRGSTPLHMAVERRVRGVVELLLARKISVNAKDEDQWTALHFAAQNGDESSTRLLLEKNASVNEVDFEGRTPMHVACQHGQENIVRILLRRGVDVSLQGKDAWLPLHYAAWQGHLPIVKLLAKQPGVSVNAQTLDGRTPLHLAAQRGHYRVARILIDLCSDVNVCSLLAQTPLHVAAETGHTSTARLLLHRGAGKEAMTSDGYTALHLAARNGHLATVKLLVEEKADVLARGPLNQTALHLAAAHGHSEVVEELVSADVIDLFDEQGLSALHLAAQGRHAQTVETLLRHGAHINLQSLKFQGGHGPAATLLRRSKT
# [9] = biological target: T3, Serine/threonine-protein kinase Nek9 (Homo sapiens) (UniProt Q8TD19); assay: Selectivity interaction (KinomeScan (DiscoverX)) EUB0000229b NEK9; conditions: at 10 µM
# T3 sequence (whole entry): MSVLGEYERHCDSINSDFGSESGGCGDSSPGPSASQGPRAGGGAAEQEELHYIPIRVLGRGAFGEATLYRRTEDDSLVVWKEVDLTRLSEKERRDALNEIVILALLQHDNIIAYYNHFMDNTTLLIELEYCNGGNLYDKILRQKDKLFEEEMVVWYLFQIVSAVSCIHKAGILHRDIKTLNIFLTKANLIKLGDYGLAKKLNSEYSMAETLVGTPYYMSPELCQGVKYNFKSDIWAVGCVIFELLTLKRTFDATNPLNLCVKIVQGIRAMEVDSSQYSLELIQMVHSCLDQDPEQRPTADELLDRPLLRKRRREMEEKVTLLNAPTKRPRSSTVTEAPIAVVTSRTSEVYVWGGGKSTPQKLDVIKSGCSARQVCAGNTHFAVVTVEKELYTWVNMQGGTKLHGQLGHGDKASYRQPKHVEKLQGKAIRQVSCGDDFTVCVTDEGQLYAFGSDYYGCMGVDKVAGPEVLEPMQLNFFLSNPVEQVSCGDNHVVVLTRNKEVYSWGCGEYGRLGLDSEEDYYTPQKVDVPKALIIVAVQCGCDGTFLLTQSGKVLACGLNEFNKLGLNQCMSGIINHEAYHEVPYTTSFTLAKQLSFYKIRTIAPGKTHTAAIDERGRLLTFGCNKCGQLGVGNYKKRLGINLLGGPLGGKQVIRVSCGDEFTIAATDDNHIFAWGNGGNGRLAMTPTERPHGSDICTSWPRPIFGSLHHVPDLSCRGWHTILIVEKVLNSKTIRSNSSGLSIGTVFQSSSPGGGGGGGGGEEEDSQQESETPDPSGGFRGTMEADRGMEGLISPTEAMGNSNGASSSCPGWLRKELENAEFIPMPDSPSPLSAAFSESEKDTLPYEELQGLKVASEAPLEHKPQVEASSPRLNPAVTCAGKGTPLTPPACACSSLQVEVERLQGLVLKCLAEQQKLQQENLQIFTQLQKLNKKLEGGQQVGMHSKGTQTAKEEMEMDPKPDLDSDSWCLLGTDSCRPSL
# [10] = biological target: Dual specificity tyrosine-phosphorylation-regulated kinase 1A (Homo sapiens, UniProt Q13627); assay: Selectivity interaction (Kinase panel (DSF assay)) EUB0001559a DYRK1A
structure (smiles),measurement,setting,value
COc1cc(Nc2nc(C)cc(-c3cnn4nc(OC)ccc34)n2)cc(C(F)(F)F)c1,% of control,[1],93%
same,% of control,[2],77%
CN(C)C/C=C/C(=O)Nc1ccc(C(=O)N2CCCC(Nc3ncc(Cl)c(-c4c[nH]c5ccccc45)n3)C2)cc1 (stereo unspecified),% of control,[3],100%
CC[C@@H]1[C@H](F)C(=O)N[C@@H]1COc1nccc2cc(C(N)=O)c(OC)cc12 [ZIMLOVISERTIB],% of inhibition,[4],1.08%
same,% of inhibition,[5],-6.2%
same,% of inhibition,[6],-0.472%
CN1Cc2nccc(-c3cn(C)nc3-c3ccc(F)cc3)c2C1=O,% of inhibition,Aurora kinase B,4%
Cn1cc(-n2cnc3c(NCc4nc5cc(Cl)c(Cl)cc5[nH]4)nc(N4CCOCC4)nc32)cn1,% of control,[7],-0.991%
Cc1cc(F)c(C(=O)Nc2cccc(-c3nncn3C(C)C)n2)cc1-n1cnc(C2CC2)c1,% of control,[8],100%
COc1cc(N(C)c2ccnc3ccc(C(F)(F)F)cc23)cc(OC)c1OC,% binding,[9],93%
CN(C(=O)c1cnn2cccnc12)c1cc2c(cc1N1CCOCC1)C(=O)N(C[C@@H](F)C(C)(C)O)C2,dTM,[10],-0.3 K

# — ChEMBL document CHEMBL5465560, “Selectivity Literature for EUbOPEN Chemogenomic Library” (2024)
